Assay results published in patent US6562793B2, “Antiallergic agent” (We'll Corporation, priority 2000, dated 2003).

Assays:
[1] = test system: mast cells from the rat abdominal cavity; test: Inhibition of histamine release from mast cells from a rat abdominal cavity; assay type: cell-based; details: Releaser: Compound 48/80
Experimental: A mast cell suspension is collected from a rat abdominal cavity. The suspension is treated with a sample adjusted to 1 to 0.01% (specimen) and to the mixture is added a histamine releasing agent. Inhibition of this release is observed to determine an activity value. […]
A solution of sample adjusted to a concentration of 0.01 to 0.003% in Tyrode's solution containing phosphatidyl-L-serine (PS) (1.75 mL) was preincubated at 37° C. for 5 min. To the solution was added 0.05 mL of the mast cell suspension from the rat abdominal cavity and the mixture was preincubated for further 15 min. […] A control was prepared as described above except that 1.75 mL of Tyrode's solution containing PS was used in place of 1.75 mL of the sample solution in Tyrode's solution containing PS and 0.2 mL of […] PS. After quenching the reaction by ice cooling, the mixture was centrifuged at 300×g and 4° C. for 10 min. The amounts of histamine were determined for the supernatant and the sediment, respectively, according to the method of Shore et al. to calculate an inhibition rate to histamine release.
Calculation equation for a histamine release rate [formula]
PS=Amount of histamine in the supernatant
PR=Amount of histamine remaining in the cells
Calculation equation for a release inhibition rate [formula]
S=Release rate of the sample
C=Release rate of the control […]

Solubility in water = assay type: physicochemical

Structure (SMILES): O=c1c(O[C@@H]2OC(CO[C@@H]3OC(CO)[C@@H](O)C(O)C3O)[C@@H](O)C(O)C2O)c(-c2ccc(O)cc2)oc2cc(O)cc(O)c12 (stereo partly drawn) [kaempferol 3-0 [β-D-glucopyranosyl-(1→6)-β-D-glucopyranoside]]
- Inhibition rate ([1]; concentration 3 × 10^−5 g/mL): 28.5%
- Inhibition rate ([1]; concentration 9 × 10^−5 g/mL): 98.4%
- solubility in water (Solubility in water): freely soluble
